Assay results taken from US20240254119A1 (THIRD HARMONIC BIO, INC., priority 2022, published 2024).

Molecular target: T1, wtKIT (Homo sapiens, UniProt P10721)
T1 construct: 1888289AM in the reaction mixtures
Test: HTRF biochemical assay, wtKIT (phosphorylation of a peptide substrate)
Details: Table 4
Method in brief: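 wtKIT (5.0 nM) phosphorylating 1 µM FAM-labelled peptide with 400 µM ATP and 10 mM MnCl2 in 100 mM HEPES pH 7.5, 1% DMSO, 3 h at 25 °C. EDTA quench; phosphopeptide detected with anti-phosphotyrosine antibody by HTRF. Enzyme titrated for 10-20% substrate conversion.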

T1 sequence (P10721 26-976): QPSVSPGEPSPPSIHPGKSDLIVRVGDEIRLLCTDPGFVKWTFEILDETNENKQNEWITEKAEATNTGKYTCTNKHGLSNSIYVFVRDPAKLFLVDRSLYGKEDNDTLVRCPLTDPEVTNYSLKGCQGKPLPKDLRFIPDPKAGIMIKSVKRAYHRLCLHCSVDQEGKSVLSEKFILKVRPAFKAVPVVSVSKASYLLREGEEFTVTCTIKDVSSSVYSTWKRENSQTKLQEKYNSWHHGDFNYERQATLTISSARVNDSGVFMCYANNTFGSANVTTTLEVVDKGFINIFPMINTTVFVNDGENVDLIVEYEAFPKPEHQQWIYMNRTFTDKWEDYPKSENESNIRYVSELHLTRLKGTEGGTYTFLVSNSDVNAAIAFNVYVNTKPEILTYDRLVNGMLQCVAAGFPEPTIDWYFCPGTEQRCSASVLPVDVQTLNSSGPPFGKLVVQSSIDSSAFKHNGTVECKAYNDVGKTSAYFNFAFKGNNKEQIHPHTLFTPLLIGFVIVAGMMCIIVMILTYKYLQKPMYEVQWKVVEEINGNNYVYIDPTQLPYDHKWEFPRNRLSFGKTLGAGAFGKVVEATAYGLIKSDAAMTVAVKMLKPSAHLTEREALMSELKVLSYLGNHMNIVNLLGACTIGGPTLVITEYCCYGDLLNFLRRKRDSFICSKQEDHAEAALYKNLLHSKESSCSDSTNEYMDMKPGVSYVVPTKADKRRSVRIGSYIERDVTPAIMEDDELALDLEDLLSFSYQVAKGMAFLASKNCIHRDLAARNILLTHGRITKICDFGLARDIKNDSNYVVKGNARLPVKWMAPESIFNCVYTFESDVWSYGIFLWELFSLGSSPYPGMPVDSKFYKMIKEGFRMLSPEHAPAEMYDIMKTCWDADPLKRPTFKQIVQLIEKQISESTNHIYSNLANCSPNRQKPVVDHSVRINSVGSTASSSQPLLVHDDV

Compound | IC50 [µM]
COc1ccn2c(C(=O)Nc3cc(-c4noc(Cc5ccccc5)n4)ccc3C)cnc2c1 [Compound I-552, N-(5-(5-benzyl-1,2,4-oxadiazol-3-yl)-2-methylphenyl)-7-methoxyimidazo[1,2-a]pyridine-3-carboxamide] | ≤ 0.05
CNCC(O)Cc1nc(-c2ccc(C)c(NC(=O)c3cnc4ccccn34)c2)no1 (stereo not drawn) [Compound I-557] | 5 to 30
COc1ccn2c(C(=O)Nc3cc(-c4noc(CCC(C)(C)O)n4)ccc3C)cnc2c1 [Compound I-561, N-(5-(5-(3-hydroxy-3-methylbutyl)-1,2,4-oxadiazol-3-yl)-2-methylphenyl)-7-methoxyimidazo[1,2-a]pyridine-3-carboxamide] | ≤ 0.05
Cc1ccc(-c2noc(C[C@H](O)C(F)F)n2)cc1NC(=O)c1cnc2ccc(-c3ccn(C)n3)cn12 [Compound I-562, (S)—N-(5-(5-(3,3-difluoro-2-hydroxypropyl)-1,2,4-oxadiazol-3-yl)-2-methylphenyl)-6-(1-methyl-1H-pyrazol-3-yl)imidazo[1,2-a]pyridine-3-carboxamide] | ≤ 0.05
Cc1ccc(-c2noc(CCC(C)(C)O)n2)cc1NC(=O)c1cnn2ccccc12 [Compound I-563] | 0.05 to 0.5
Cc1nc(-c2ccc(C)c(NC(=O)c3cnc4ccccn34)c2)no1 [Compound I-564] | 0.05 to 0.5
Cc1ccc(-c2noc(CCC(C)(C)O)n2)cc1NC(=O)c1cnc2cc(COCC(C)(C)O)ccn12 [Compound I-567] | 0.05 to 0.5
Cc1ccc(-c2noc(C[C@H](O)C(F)F)n2)cc1NC(=O)c1cnc2cc(OCCCCO)ccn12 [Compound I-568, (S)—N-(5-(5-(3,3-difluoro-2-hydroxypropyl)-1,2,4-oxadiazol-3-yl)-2-methylphenyl)-7-(4-hydroxybutoxy)imidazo[1,2-a]pyridine-3-carboxamide] | ≤ 0.05
Cc1nc(-c2ccc(C)c(NC(=O)c3cnn4cc(C(F)F)ccc34)c2)no1 [Compound I-569] | 0.05 to 0.5
Cc1ccc(-c2noc(C[C@H](O)C(F)F)n2)cc1NC(=O)c1cnc2cc(OCC(C)O)ccn12 (stereo partly drawn) [Compound I-571, N-(5-(5-((S)-3,3-difluoro-2-hydroxypropyl)-1,2,4-oxadiazol-3-yl)-2-methylphenyl)-7-(2-hydroxypropoxy)imidazo[1,2-a]pyridine-3-carboxamide] | ≤ 0.05
Cc1ccc(-c2noc(-c3ccccn3)n2)cc1NC(=O)c1cnc2cc(COCC(C)(C)O)ccn12 [Compound I-573] | 0.05 to 0.5
Cc1ccc(-c2noc(C[C@H](O)C(F)F)n2)cc1NC(=O)c1cnc2cc(COCc3c[nH]nn3)ccn12 [Compound I-575, (S)-7-(((1H-1,2,3-triazol-4-yl)methoxy)methyl)-N-(5-(5-(3,3-difluoro-2-hydroxypropyl)-1,2,4-oxadiazol-3-yl)-2-methylphenyl)imidazo[1,2-a]pyridine-3-carboxamide] | ≤ 0.05
Cc1ccc(-c2noc(C[C@H](O)C(F)F)n2)cc1NC(=O)c1cnc2cc(OCC(C)(C)O)ccn12 [Compound I-576] | ≤ 0.05
Cc1ccc(-c2noc(C[C@H](O)C(F)F)n2)cc1NC(=O)c1cnc2cc(OCCCC(C)(C)O)ccn12 [Compound I-580, (S)—N-(5-(5-(3,3-difluoro-2-hydroxypropyl)-1,2,4-oxadiazol-3-yl)-2-methylphenyl)-7-((4-hydroxy-4-methylpentyl)oxy)imidazo[1,2-a]pyridine-3-carboxamide] | ≤ 0.05
COc1ccn2c(C(=O)Nc3cc(-c4noc(CC5CCCO5)n4)ccc3C)cnc2c1 (stereo not drawn) [Compound I-582, 7-methoxy-N-(2-methyl-5-(5-((tetrahydrofuran-2-yl)methyl)-1,2,4-oxadiazol-3-yl)phenyl)imidazo[1,2-a]pyridine-3-carboxamide] | ≤ 0.05
Cc1ccn2c(C(=O)Nc3cc(-c4noc(CC5CCCCO5)n4)ccc3C)cnc2c1 (stereo not drawn) [Compound I-583, 7-methyl-N-(2-methyl-5-(5-((tetrahydro-2H-pyran-2-yl)methyl)-1,2,4-oxadiazol-3-yl)phenyl)imidazo[1,2-a]pyridine-3-carboxamide] | ≤ 0.05
Cc1ccc(-c2noc(C[C@H](O)C(F)F)n2)cc1NC(=O)c1cnc2cc(COCc3c[nH]cn3)ccn12 [Compound I-585, (S)-7-(((1H-imidazol-4-yl)methoxy)methyl)-N-(5-(5-(3,3-difluoro-2-hydroxypropyl)-1,2,4-oxadiazol-3-yl)-2-methylphenyl)imidazo[1,2-a]pyridine-3-carboxamide] | ≤ 0.05
Cc1ccc(-c2noc(C[C@H](O)C(F)F)n2)cc1NC(=O)c1cnc2cc(COCc3ccn[nH]3)ccn12 [Compound I-586, (S)-7-(((1H-pyrazol-5-yl)methoxy)methyl)-N-(5-(5-(3,3-difluoro-2-hydroxypropyl)-1,2,4-oxadiazol-3-yl)-2-methylphenyl)imidazo[1,2-a]pyridine-3-carboxamide] | ≤ 0.05
Cc1ccc(-c2noc(C[C@H](O)C(F)F)n2)cc1NC(=O)c1cnc2cc(COCc3nc[nH]n3)ccn12 [Compound I-587, N-[5-[5-[(2S)-3,3-difluoro-2-hydroxy-propyl]-1,2,4-oxadiazol-3-yl]-2-methyl-phenyl]-7-(1H-1,2,4-triazol-3-ylmethoxymethyl)imidazo[1,2-a]pyridine-3-carboxamide] | ≤ 0.05
Cc1ccc(-c2noc(CC(O)C3COC3)n2)cc1NC(=O)c1cnc2ccccn12 (stereo not drawn) [Compound I-591] | 0.05 to 0.5
COc1ccn2c(C(=O)Nc3cc(-c4noc(CC5CCCCO5)n4)ccc3C)cnc2c1 (stereo not drawn) [Compound I-592, 7-methoxy-N-(2-methyl-5-(5-((tetrahydro-2H-pyran-2-yl)methyl)-1,2,4-oxadiazol-3-yl)phenyl)imidazo[1,2-a]pyridine-3-carboxamide] | ≤ 0.05

The next lines start with the values.

IC50 [µM] | Compound
≤ 0.05 | Cc1ccc(-c2noc([C@H]3C[C@@H]3F)n2)cc1NC(=O)c1cnc2cc(-c3cscn3)ccn12 [Compound I-547, N-(5-(5-((1R,2S)-2-fluorocyclopropyl)-1,2,4-oxadiazol-3-yl)-2-methylphenyl)-7-(thiazol-4-yl)imidazo[1,2-a]pyridine-3-carboxamide]
≤ 0.05 | Cc1nc(-c2ccc(C)c(NC(=O)c3cnc4cc(-c5cscn5)ccn34)c2)no1 [Compound I-548, N-(2-methyl-5-(5-methyl-1,2,4-oxadiazol-3-yl)phenyl)-7-(thiazol-4-yl)imidazo[1,2-a]pyridine-3-carboxamide]
≤ 0.05 | Cc1ccnc(-c2nc(-c3ccc(C)c(NC(=O)c4cnc5cc(C)ccn45)c3)no2)c1 [Compound I-549, 7-methyl-N-(2-methyl-5-(5-(4-methylpyridin-2-yl)-1,2,4-oxadiazol-3-yl)phenyl)imidazo[1,2-a]pyridine-3-carboxamide]
0.05 to 0.5 | Cc1ccn2c(C(=O)Nc3cc(-c4noc(-c5cccnn5)n4)ccc3C)cnc2c1 [Compound I-550]
≤ 0.05 | Cc1ccn2c(C(=O)Nc3cc(-c4noc(-c5nc(C)oc5C)n4)ccc3C)cnc2c1 [Compound I-551]
≤ 0.05 | Cc1ccn2c(C(=O)Nc3cc(-c4noc(CC5CCCO5)n4)ccc3C)cnc2c1 (stereo not drawn) [Compound I-553, 7-methyl-N-(2-methyl-5-(5-((tetrahydrofuran-2-yl)methyl)-1,2,4-oxadiazol-3-yl)phenyl)imidazo[1,2-a]pyridine-3-carboxamide]
≤ 0.05 | Cc1ccc(-c2noc(C[C@H](O)C(F)F)n2)cc1NC(=O)c1cnc2cc(-c3cscn3)ccn12 [Compound I-554, (S)—N-(5-(5-(3,3-difluoro-2-hydroxypropyl)-1,2,4-oxadiazol-3-yl)-2-methylphenyl)-7-(thiazol-4-yl)imidazo[1,2-a]pyridine-3-carboxamide]
≤ 0.05 | Cc1ccc(-c2noc(C[C@H](O)C(F)F)n2)cc1NC(=O)c1cnc2cc(-c3ccn(C)n3)ccn12 [Compound I-555, (S)—N-(5-(5-(3,3-difluoro-2-hydroxypropyl)-1,2,4-oxadiazol-3-yl)-2-methylphenyl)-7-(1-methyl-1H-pyrazol-3-yl)imidazo[1,2-a]pyridine-3-carboxamide]
≤ 0.05 | COc1ccn2c(C(=O)Nc3cc(-c4noc(-c5ccc(C)cn5)n4)ccc3C)cnc2c1 [Compound I-556, 7-methoxy-N-(2-methyl-5-(5-(5-methylpyridin-2-yl)-1,2,4-oxadiazol-3-yl)phenyl)imidazo[1,2-a]pyridine-3-carboxamide]
≤ 0.05 | Cc1nc(-c2ccc(C)c(NC(=O)c3cnn4cc(-c5cscn5)ccc34)c2)no1 [Compound I-559, N-(2-methyl-5-(5-methyl-1,2,4-oxadiazol-3-yl)phenyl)-6-(thiazol-4-yl)pyrazolo[1,5-a]pyridine-3-carboxamide]
≤ 0.05 | Cc1ccc(-c2noc(C[C@H](O)C(F)F)n2)cc1NC(=O)c1cnc2ccc(-c3cscn3)cn12 [Compound I-560, (S)—N-(5-(5-(3,3-difluoro-2-hydroxypropyl)-1,2,4-oxadiazol-3-yl)-2-methylphenyl)-6-(thiazol-4-yl)imidazo[1,2-a]pyridine-3-carboxamide]
≤ 0.05 | CCOc1ccn2c(C(=O)Nc3cc(-c4noc(C[C@H](O)C(F)F)n4)ccc3C)cnc2c1 [Compound I-566, (S)—N-(5-(5-(3,3-difluoro-2-hydroxypropyl)-1,2,4-oxadiazol-3-yl)-2-methylphenyl)-7-ethoxyimidazo[1,2-a]pyridine-3-carboxamide]
≤ 0.05 | Cc1ccc(-c2noc(C[C@H](O)C(F)F)n2)cc1NC(=O)c1cnc2cc(OCCO)ccn12 [Compound I-570, (S)—N-(5-(5-(3,3-difluoro-2-hydroxypropyl)-1,2,4-oxadiazol-3-yl)-2-methylphenyl)-7-(2-hydroxyethoxy)imidazo[1,2-a]pyridine-3-carboxamide]
≤ 0.05 | Cc1ccc(-c2noc(C[C@H](O)C(F)F)n2)cc1NC(=O)c1cnc2cc(O)ccn12 [Compound I-574, (S)—N-(5-(5-(3,3-difluoro-2-hydroxypropyl)-1,2,4-oxadiazol-3-yl)-2-methylphenyl)-7-hydroxyimidazo[1,2-a]pyridine-3-carboxamide]
0.5 to 5 | Cc1ccn2c(C(=O)Nc3cc(-c4noc(CC(=O)CF)n4)ccc3C)cnc2c1 [Compound I-589]
